Test results: BindingDB's records for patent US20240116926 (Astrazeneca, 2024)

Target: T1, Transcriptional enhancer factor TEF-3 [217-434] (Homo sapiens, UniProt Q15561)
T1 construct: 217-434
Assay: TEAD4 FRET Assay

T1 sequence (Q15561 217-434): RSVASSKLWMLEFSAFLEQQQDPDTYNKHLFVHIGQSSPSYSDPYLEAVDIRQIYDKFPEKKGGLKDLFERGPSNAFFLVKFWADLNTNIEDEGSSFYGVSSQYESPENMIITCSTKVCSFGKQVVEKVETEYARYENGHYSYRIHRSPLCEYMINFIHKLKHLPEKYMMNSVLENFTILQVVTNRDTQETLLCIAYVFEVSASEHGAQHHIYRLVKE

IC50: 130 nM
SMILES: C=CC(=O)N1C[C@H](C#N)[C@H](Nc2nnc(-c3ccc(C(F)(F)F)cc3)c3ccccc23)C1 (single isomer, unassigned) [US20240116926, Example 29]
